From ChEMBL document CHEMBL1862790, “Optimisation of fenarimol series for the treatment of Chagas disease” come the findings set out here.

Structures are written as SMILES.

Data set [1] relates to Trypanosoma cruzi. The data set is described as follows: microbe, parasite or virus in culture. The data set is classed as functional, organism-based, Tulahuen LacZ, Clone C4. To be noted: Trypanosoma cruzi, Tulahuen LacZ, Clone C4.
Data set [2] relates to Trypanosoma cruzi. The data set is described as follows: microbe, parasite or virus in culture. The data set is classed as functional, Tulahuen LacZ, Clone C4. To be noted: Trypanosoma cruzi, Tulahuen LacZ, Clone C4.
Data set [3] can be described thus: DNDI: Cytotoxicity against L-6 rat myoblasts from skeletal muscle cells. To be noted: L6 rat skeletal muscle myoblast cells, IC50.

With `O=C(c1cscn1)N1CCC(NC(c2cccnc2)c2ccc(Cl)cc2F)CC1` (configuration not stated), the IC50 (in general, the concentration needed to halve the response being measured) was 241 nM in the data set on Trypanosoma cruzi [1] and over 100000 nM in data set [3]. Besides, the 90% effect level in the data set on Trypanosoma cruzi [2] (IC90) was put at 832 nM.
As for `O=C(NC1CC1)N1CCN(C(c2ccc(C(F)(F)F)cc2)c2cncnc2)CC1` (configuration not stated), the IC50 was over 1000 nM in the data set with Trypanosoma cruzi [1] and over 100000 nM in data set [3]. Further, in the data set on Trypanosoma cruzi [2], the IC90 (as a rule, the concentration at which the effect reaches the 90% level) is over 1000 nM.
For `FC(F)(F)c1ccc(C(NC2CCN(c3ncccn3)CC2)c2cccnc2)cc1` (configuration not stated), the IC50 in the data set with Trypanosoma cruzi [1] stood at 10.5 nM; in data set [3] it was 55100 nM. Moreover, it took 92.5 nM to reach the 90% level in the data set with Trypanosoma cruzi [2] (IC90).
In the same order, the values of `O=C(C1CC1)N1CCC(NC(c2cccnc2)c2ccc(Cl)cc2F)CC1` (configuration not stated) are 126 nM, over 100000 nM and 584 nM.
With `O=C(NC1CC1)N1CCN(C(c2cncnc2)c2ccc(C(F)(F)F)cc2F)CC1` (configuration not stated), the IC50 is 490 nM with Trypanosoma cruzi [1] and over 100000 nM in data set [3]. This compound returned an IC90 in the data set with Trypanosoma cruzi [2] of 792 nM.
Consider `Fc1cc(Cl)ccc1C(NC1CCN(c2ccccc2F)CC1)c1cccnc1` (configuration not stated), for which the IC50 in the data set on Trypanosoma cruzi [1] worked out at 4.5 nM; in data set [3] it was 53200 nM. The same compound yielded an IC90 in the data set with Trypanosoma cruzi [2] of 10 nM.
Take `N#Cc1ccc(C(c2cccnc2)N2CCC(NC(=O)c3ccc(F)cc3F)CC2)cc1` (configuration not stated): the figures for the IC50 (with Trypanosoma cruzi [1]; in data set [3]) were 10 nM and over 100000 nM, respectively. The IC90 in the data set with Trypanosoma cruzi [2] came out at 40 nM.
In the same order, the values of `N#Cc1ccc(C(c2cccnc2)N2CCC(NC(=O)c3cccc(F)c3)CC2)cc1` (configuration not stated) are 39 nM, over 100000 nM and 368 nM.
As for `Cc1nc(C(=O)NC2CCN(C(c3ccc(C#N)cc3)c3cccnc3)CC2)cs1` (configuration not stated), the IC50 in the data set with Trypanosoma cruzi [1] was 65 nM; in data set [3], over 100000 nM. Also, in the data set with Trypanosoma cruzi [2], it took 156 nM to reach the 90% level (IC90).
With `N#Cc1ccc(C(c2cccnc2)N2CCN(C(=O)C3CC3)CC2)cc1` (configuration not stated), the IC50 with Trypanosoma cruzi [1] is 281 nM; in data set [3] it was over 100000 nM. In the data set with Trypanosoma cruzi [2], the 90% effect level (IC90) was put at 556 nM.
Consider `N#Cc1ccc(C(c2cccnc2)N2CCC(NC(=O)c3cccc(C(F)(F)F)c3)CC2)cc1` (configuration not stated), for which the IC50 was 23 nM in the data set on Trypanosoma cruzi [1] and over 100000 nM in data set [3]. In the data set with Trypanosoma cruzi [2], the IC90 turned out to be 75.5 nM.
For the compound `CS(=O)(=O)N1CCN(C(c2ccc(C#N)cc2)c2cccnc2)CC1` (configuration not stated), the IC50 in the data set with Trypanosoma cruzi [1] was 365 nM; in data set [3], over 100000 nM. The same compound gave an IC90 in the data set with Trypanosoma cruzi [2] of 734 nM.
Consider `O=C(c1ccccc1)N1CCC(NC(c2cccnc2)c2ccc(Cl)cc2F)CC1` (configuration not stated), for which the IC50 came to 58 nM in the data set on Trypanosoma cruzi [1] and 70800 nM in data set [3]. In the data set on Trypanosoma cruzi [2], this compound came in with an IC90 of 248 nM.
As to `N#Cc1ccc(C(c2cccnc2)N2CCC(NC(=O)c3ccccc3F)CC2)cc1` (configuration not stated), the half-maximal inhibitory concentration (IC50) in the data set with Trypanosoma cruzi [1] is 23.5 nM; in data set [3], over 100000 nM. Moreover, in the data set on Trypanosoma cruzi [2], the IC90 stood at 402 nM.
The corresponding values for `Cc1noc(N2CCN(C(c3ccc(C#N)cc3)c3cccnc3)CC2)n1` (configuration not stated) are 64 nM, over 100000 nM and 127 nM.
For the compound `CS(=O)(=O)N1CCN(C(c2cncnc2)c2ccc(C(F)(F)F)cc2F)CC1` (configuration not stated), the IC50 is 24.5 nM in the data set with Trypanosoma cruzi [1] and over 100000 nM in data set [3]. The compound further came in with an IC90 with Trypanosoma cruzi [2] of 72.5 nM.
Take `CS(=O)(=O)N1CCC(NC(c2cccnc2)c2ccc(Cl)cc2F)CC1` (configuration not stated): the IC50 in the data set on Trypanosoma cruzi [1] is 134 nM; in data set [3] it was over 100000 nM. In the data set on Trypanosoma cruzi [2], this compound came in with an IC90 of 540 nM.
The corresponding values for `Cc1nc(N2CCC(NC(c3cccnc3)c3ccc(Cl)cc3F)CC2)no1` (configuration not stated) are 64 nM, over 100000 nM and 140 nM.
For `N#Cc1ccc(C(c2cccnc2)N2CCC(NC(=O)c3ccc(F)cc3)CC2)cc1` (configuration not stated), the IC50 in the data set with Trypanosoma cruzi [1] was 18.5 nM; in data set [3], over 100000 nM. This compound gave an IC90 in the data set with Trypanosoma cruzi [2] of 122 nM.
`N#Cc1ccc(C(c2cccnc2)N2CCC(NC(=O)c3ccc(F)cc3C(F)(F)F)CC2)cc1` (configuration not stated): the values for the IC50 (in the data set on Trypanosoma cruzi [1]; in data set [3]) were 6.87 nM and 78500 nM, respectively. In the data set on Trypanosoma cruzi [2], this compound gave an IC90 of 29.6 nM.
With `Fc1cc(Cl)ccc1C(NC1CCN(c2nccs2)CC1)c1cccnc1` (configuration not stated), the IC50 with Trypanosoma cruzi [1] came out at 9 nM; in data set [3], 56200 nM. Besides, the IC90 with Trypanosoma cruzi [2] is 65.5 nM.
On to `O=C(C1CC1)N1CCN(C(c2ccc(C(F)(F)F)cc2)c2cncnc2)CC1` (configuration not stated), for which the IC50 in the data set on Trypanosoma cruzi [1] is 332 nM; in data set [3], over 100000 nM. In the data set on Trypanosoma cruzi [2], this compound gave an IC90 of 652 nM.
Regarding `N#Cc1ccc(C(c2cccnc2)N2CCN(C(=O)NC3CC3)CC2)cc1` (configuration not stated), the figures for the IC50 (in the data set with Trypanosoma cruzi [1]; in data set [3]) were over 1000 nM and over 100000 nM, respectively. In addition, the IC90 in the data set on Trypanosoma cruzi [2] is over 1000 nM.
On to `N#Cc1ccc(C(c2cccnc2)N2CCC(NC(=O)c3cc(F)ccc3F)CC2)cc1` (configuration not stated), for which the values for the IC50 (with Trypanosoma cruzi [1]; in data set [3]) were 15.5 nM and over 100000 nM, respectively. For the same compound, the IC90 in the data set with Trypanosoma cruzi [2] came to 49 nM.
The corresponding values for `O=C(NC1CCN(C(c2cncnc2)c2ccc(Cl)cc2F)CC1)c1ccc(F)cc1C(F)(F)F` (configuration not stated) are 11 nM, 71400 nM and 82.9 nM.
In the same order, the values of `CS(=O)(=O)N1CCN(C(c2ccc(C(F)(F)F)cc2)c2cncnc2)CC1` (configuration not stated) are 768 nM, over 100000 nM and over 1000 nM.
On to `Cc1noc(N2CCN(C(c3ccc(C(F)(F)F)cc3)c3cncnc3)CC2)n1` (configuration not stated), for which the IC50 in the data set with Trypanosoma cruzi [1] was 192 nM; in data set [3], over 100000 nM. Besides, in the data set on Trypanosoma cruzi [2], the IC90 worked out at 378 nM.
The corresponding values for `N#Cc1ccc(C(c2cccnc2)N2CCC(NC(=O)c3cccc(F)c3F)CC2)cc1` (configuration not stated) are 17 nM, over 100000 nM and 55.5 nM.
With `CC(C)(C)NC(=O)N1CCC(NC(c2cccnc2)c2ccc(Cl)cc2F)CC1` (configuration not stated), the IC50 in the data set with Trypanosoma cruzi [1] was 79.5 nM; in data set [3], over 100000 nM. In the data set on Trypanosoma cruzi [2], the 90% effect level (IC90) was put at 428 nM.
For the compound `O=C(C1CC1)N1CCN(C(c2cncnc2)c2ccc(C(F)(F)F)cc2F)CC1` (configuration not stated), the IC50 with Trypanosoma cruzi [1] is 178 nM; in data set [3], over 100000 nM. For the same compound, in the data set with Trypanosoma cruzi [2], the IC90 came to 332 nM.
For `O=C(NC1CCN(C(c2cncnc2)c2ccc(Cl)cc2F)CC1)c1ccc(F)cc1F` (configuration not stated), the IC50 in the data set with Trypanosoma cruzi [1] amounted to 15 nM; in data set [3], 81000 nM. Further, it took 114 nM to reach the 90% level in the data set on Trypanosoma cruzi [2] (IC90).
For `O=C(NC1CCN(C(c2cncnc2)c2ccc(Cl)cc2F)CC1)c1c(F)cccc1F` (configuration not stated), the results for the IC50 (in the data set on Trypanosoma cruzi [1]; in data set [3]) were 15.5 nM and 82300 nM, respectively. In addition, the IC90 with Trypanosoma cruzi [2] came out at 204 nM.
Turning to `N#Cc1ccc(C(c2cccnc2)N2CCC(NC(=O)c3ccc(C(F)(F)F)cc3)CC2)cc1` (configuration not stated), the IC50 with Trypanosoma cruzi [1] came to 20.5 nM; in data set [3], 65700 nM. The compound further had an IC90 with Trypanosoma cruzi [2] of 76.5 nM.
`FC(F)(F)c1ccc(C(c2cncnc2)N2CCN(c3nccs3)CC2)cc1` (configuration not stated): the IC50 in the data set on Trypanosoma cruzi [1] amounted to 109 nM; in data set [3], 68200 nM. Also, it took 266 nM to reach the 90% level in the data set on Trypanosoma cruzi [2] (IC90).
The corresponding values for `O=C(NC1CCN(C(c2cncnc2)c2ccc(Cl)cc2F)CC1)c1cccc(F)c1F` (configuration not stated) are 29.5 nM, 75800 nM and 241 nM.
For the compound `N#Cc1ccc(C(c2cccnc2)N(C(=O)C2CC2)C2CCN(C(=O)C3CC3)CC2)cc1` (configuration not stated), the IC50 was over 10000 nM with Trypanosoma cruzi [1] and over 100000 nM in data set [3]. This compound returned an IC90 in the data set with Trypanosoma cruzi [2] of over 10000 nM.
With `N#Cc1ccc(C(c2cccnc2)N2CCC(NC(=O)c3ccc(C(F)(F)F)cc3F)CC2)cc1` (configuration not stated), the figures for the IC50 (with Trypanosoma cruzi [1]; in data set [3]) were 345 nM and 76800 nM, respectively. Moreover, the IC90 in the data set on Trypanosoma cruzi [2] was 696 nM.
On to `O=C(NC1CCN(C(c2cncnc2)c2ccc(Cl)cc2F)CC1)c1cc(F)ccc1F` (configuration not stated), for which the half-inhibitory concentration (IC50) in the data set on Trypanosoma cruzi [1] is 22.5 nM; in data set [3], 74100 nM. Moreover, the IC90 in the data set with Trypanosoma cruzi [2] is 104 nM.
The corresponding values for `CC(C)OCCCNC(=O)c1cccc(C(O)(c2ccc(Cl)cc2)c2cccnc2)c1` (configuration not stated) are 97.5 nM, 74800 nM and 232 nM.
